Test results reported in the NIST ThermoML archive (doi:10.1016/j.jct.2016.02.001).

Experiment: mn = molality of the nth substance listed, in mol/kg
Settings: for surface tension liquid-gas: Maximal bubble pressure; for mass density: 100 kPa, Liquid, Vibrating tube method

CC(=O)[O-].CCCCCCn1cc[n+](C)c1 [3-hexyl-1-methylimidazolium acetate] + O
Settings	mass density [kg/m3]	surface tension liquid-gas [mN/m]
288.15 K, m1 = 0.0117	1000.09	73
288.15 K, m1 = 0.0162	1000.19	72.9
288.15 K, m1 = 0.0285	1000.4	72.7
288.15 K, m1 = 0.044	1000.58	72.2
288.15 K, m1 = 0.1102	1001.44	70.4
288.15 K, m1 = 0.1674	1002.13	68.9
288.15 K, m1 = 0.2233	1002.92	67.6
288.15 K, m1 = 0.2797	1003.61	66.3
288.15 K, m1 = 0.3357	1004.39	65.1
288.15 K, m1 = 0.3914	1005.11	63.7
288.15 K, m1 = 0.4475	1005.8	62.4
288.15 K, m1 = 0.5029	1006.52	61.4
293.15 K, m1 = 0.0117	999.03	72.3
293.15 K, m1 = 0.0162	999.15	72.2
293.15 K, m1 = 0.0285	999.32	71.9
293.15 K, m1 = 0.044	999.53	71.3
293.15 K, m1 = 0.1102	1000.29	69.6
293.15 K, m1 = 0.1674	1000.95	68.2
293.15 K, m1 = 0.2233	1001.64	67
293.15 K, m1 = 0.2797	1002.33	65.6
293.15 K, m1 = 0.3357	1003	64.4
293.15 K, m1 = 0.3914	1003.71	63
293.15 K, m1 = 0.4475	1004.46	61.7
293.15 K, m1 = 0.5029	1005.19	60.7
298.15 K, m1 = 0.0117	997.74	71.6
298.15 K, m1 = 0.0162	997.89	71.4
298.15 K, m1 = 0.0285	998.01	71.1
298.15 K, m1 = 0.044	998.25	70.6
298.15 K, m1 = 0.1102	998.91	69
298.15 K, m1 = 0.1674	999.59	67.5
298.15 K, m1 = 0.2233	1000.3	66.2
298.15 K, m1 = 0.2797	1001	64.8
298.15 K, m1 = 0.3357	1001.66	63.7
298.15 K, m1 = 0.3914	1002.34	62.4
298.15 K, m1 = 0.4475	1003.01	61.1
298.15 K, m1 = 0.5029	1003.64	60.2
303.15 K, m1 = 0.0117	996.24	70.7
303.15 K, m1 = 0.0162	996.35	70.6
303.15 K, m1 = 0.0285	996.49	70.3
303.15 K, m1 = 0.044	996.69	69.7
303.15 K, m1 = 0.1102	997.44	68.1
303.15 K, m1 = 0.1674	998.06	66.8
303.15 K, m1 = 0.2233	998.79	65.6
303.15 K, m1 = 0.2797	999.48	64.1
303.15 K, m1 = 0.3357	1000.14	62.9
303.15 K, m1 = 0.3914	1000.78	61.7
303.15 K, m1 = 0.4475	1001.42	60.5
303.15 K, m1 = 0.5029	1002.04	59.6
308.15 K, m1 = 0.0117	994.58	69.8
308.15 K, m1 = 0.0162	994.69	69.7
308.15 K, m1 = 0.0285	994.81	69.4
308.15 K, m1 = 0.044	994.99	68.9
308.15 K, m1 = 0.1102	995.81	67.5
308.15 K, m1 = 0.1674	996.43	65.9
308.15 K, m1 = 0.2233	997.08	64.7
308.15 K, m1 = 0.2797	997.72	63.4
308.15 K, m1 = 0.3357	998.39	62.2
308.15 K, m1 = 0.3914	999.02	61.1
308.15 K, m1 = 0.4475	999.65	59.9
308.15 K, m1 = 0.5029	1000.24	58.9
313.15 K, m1 = 0.0117	992.75	69
313.15 K, m1 = 0.0162	992.83	68.9
313.15 K, m1 = 0.0285	992.94	68.7
313.15 K, m1 = 0.044	993.11	68.2
313.15 K, m1 = 0.1102	993.86	66.6
313.15 K, m1 = 0.1674	994.56	65.3
313.15 K, m1 = 0.2233	995.21	64.1
313.15 K, m1 = 0.2797	995.84	62.8
313.15 K, m1 = 0.3357	996.49	61.7
313.15 K, m1 = 0.3914	997.12	60.5
313.15 K, m1 = 0.4475	997.73	59.2
313.15 K, m1 = 0.5029	998.32	58.2
318.15 K, m1 = 0.0117	990.75	68.2
318.15 K, m1 = 0.0162	990.81	68.1
318.15 K, m1 = 0.0285	990.95	67.9
318.15 K, m1 = 0.044	991.1	67.4
318.15 K, m1 = 0.1102	991.84	65.8
318.15 K, m1 = 0.1674	992.43	64.4
318.15 K, m1 = 0.2233	993.11	63.3
318.15 K, m1 = 0.2797	993.76	62.1
318.15 K, m1 = 0.3357	994.39	61
318.15 K, m1 = 0.3914	995	59.7
318.15 K, m1 = 0.4475	995.59	58.5
318.15 K, m1 = 0.5029	996.16	57.7
